From US20100173935A1, “Muscarinic Receptor Agonists that are Effective in the Treatment of Pain, Alzheimer's Disease and Schizophrenia” (AstraZeneca AB, priority 2006, published 2010)

What was measured:
Format in all cases: cell-based
[1] = target: T1, hM1 (human Muscarinic receptor subtype 1) (Homo sapiens, UniProt P11229); experiment: Human M1 calcium mobilization FLIPR assay; conditions: CHO cells expressing hM1, Ca2+ release
T1 construct: expressed in transfected cells; host or cells: CHO cells (ATCC)
T1 sequence (P11229 1-460): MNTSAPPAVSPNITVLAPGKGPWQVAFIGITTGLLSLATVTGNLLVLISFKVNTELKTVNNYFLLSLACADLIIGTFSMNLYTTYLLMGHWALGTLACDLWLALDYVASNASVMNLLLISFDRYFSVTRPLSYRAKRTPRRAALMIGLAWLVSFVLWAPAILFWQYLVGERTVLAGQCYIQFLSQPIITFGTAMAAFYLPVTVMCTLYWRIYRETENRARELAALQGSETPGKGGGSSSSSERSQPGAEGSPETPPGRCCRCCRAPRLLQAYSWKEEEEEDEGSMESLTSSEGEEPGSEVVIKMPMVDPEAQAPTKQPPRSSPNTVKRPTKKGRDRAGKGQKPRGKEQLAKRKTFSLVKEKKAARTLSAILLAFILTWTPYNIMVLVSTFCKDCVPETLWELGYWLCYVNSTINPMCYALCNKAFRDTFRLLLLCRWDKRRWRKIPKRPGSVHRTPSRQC
Description: (§1) The compound activity in the present invention (EC50 or IC50) was measured using a 384 plate-based imaging assay that monitors drug induced intracellular Ca^2+ release in whole cells. Activation of hM1 (human Muscarinic receptor subtype 1, gene bank access NM_000738), rM1 (rat Muscarinic receptor subtype 1, gene bank access NM_080773), hM3 (human Muscarinic receptor subtype 3, gene bank access NM_000740NM_000740) and hM5 (human Muscarinic receptor subtype 5, gene bank access NM_0121258), receptors expressed in CHO cells (chinese hamster ovary cells, ATCC) was quantified in a Molecular Devices FLIPR II™ instrument as an increase in fluorescent signal. Inhibition of hM3 and hM5 by compounds was determined by the decrease in fluorescent signal in response to 20 nM carbachol activation.
(§2) CHO cells were plated in 384-black polylysine coated plate (Costar) at 8000 cells/well/50 μl for 24 hours or 4000 cells/well for 48 hours in a humidified incubator (5% CO2 and 37° C.) in DMEM/F12 medium without selection agent. Prior to the experiment the cell culture medium was removed from the plates by inversion. A loading solution of 30 μl of Hank's balanced salt solution, 10 mM Hepes and 2.5 mM Probenicid at Ph 7.4 (Cat no. 311-520-VL, Wisent) with 2 μM calcium indicator dye (FLUO-3AM, Molecular Probes F14202) was added to each well. Plates were incubated at 37° C. for 60 minutes prior to start the experiment. The incubation was terminated by washing the cells four times in assay buffer, leaving a residual 25 μl buffer per well. Cell plates were then transferred to the FLIPR, ready for compound additions.
(§3) The day of experiment, carbachol and compounds were diluted in three-fold concentration range (10 points serial dilution) for addition by FLIPR instrument. For all calcium assays, a baseline reading was taken for 30 seconds followed by the addition of 12.5 μl (25 μl for hM1 and rM1) of compounds, resulting in a total well volume of 37.5 μl (50 μl for hM1 and rM1). Data were collected every 1.6 seconds for 300 seconds. For hM3 and hM5 an additional 12.5 μl of carbachol (20 nM final) was added at 300 seconds. After this addition of carbachol (producing a final volume of 50 μl), the FLIPR continued to collect data every 2 seconds for 240 seconds. The fluorescence emission was read using filter 1 (emission 520-545 nm) by the FLIPR on board CCD camera.
(§4) Calcium mobilization output data were calculated as the maximal relative fluorescence unit (RFU) minus the minal value for both compound and agonist reading frame (except for hM1 and rM1 using only the maximal RFU). Data were analyzed using sigmoidal fits of a non-linear curve-fitting program (XLfit version 5.0.6 from ID Business Solutions Limited, Guildford, UK). All EC50 and IC50 values are reported as arithmetic means±standard error of mean of ‘n’ independent experiments.

[2] = target: T2, hM3 (human Muscarinic receptor subtype 3) (Homo sapiens, UniProt P20309); experiment: Human M3 calcium mobilization FLIPR assay; conditions: CHO cells expressing hM3, Ca2+ release
T2 construct: expressed in transfected cells; host or cells: CHO cells (ATCC)
Description: as §1, §2, §3, §4

[3] = target: T3, hM5 (human Muscarinic receptor subtype 5) (Homo sapiens, UniProt P08912); experiment: Human M5 calcium mobilization FLIPR assay; conditions: CHO cells expressing hM5, Ca2+ release
T3 construct: expressed in transfected cells; host or cells: CHO cells (ATCC)
T3 sequence (P08912 1-532): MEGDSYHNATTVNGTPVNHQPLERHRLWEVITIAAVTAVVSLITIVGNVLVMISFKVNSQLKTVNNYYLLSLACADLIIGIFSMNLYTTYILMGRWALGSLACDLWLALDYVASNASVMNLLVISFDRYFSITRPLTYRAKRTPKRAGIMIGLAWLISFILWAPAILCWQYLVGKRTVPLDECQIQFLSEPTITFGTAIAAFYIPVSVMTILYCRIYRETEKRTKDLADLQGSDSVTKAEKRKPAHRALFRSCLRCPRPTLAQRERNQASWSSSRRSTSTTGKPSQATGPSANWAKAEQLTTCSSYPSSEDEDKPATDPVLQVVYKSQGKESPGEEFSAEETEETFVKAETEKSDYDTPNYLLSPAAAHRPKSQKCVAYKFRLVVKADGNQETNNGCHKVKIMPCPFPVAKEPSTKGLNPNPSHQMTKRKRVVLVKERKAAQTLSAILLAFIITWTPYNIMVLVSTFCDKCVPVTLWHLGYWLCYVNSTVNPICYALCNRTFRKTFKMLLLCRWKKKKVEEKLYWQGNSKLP
Description: as §1, §2, §3, §4

T2 sequence (P20309 whole entry): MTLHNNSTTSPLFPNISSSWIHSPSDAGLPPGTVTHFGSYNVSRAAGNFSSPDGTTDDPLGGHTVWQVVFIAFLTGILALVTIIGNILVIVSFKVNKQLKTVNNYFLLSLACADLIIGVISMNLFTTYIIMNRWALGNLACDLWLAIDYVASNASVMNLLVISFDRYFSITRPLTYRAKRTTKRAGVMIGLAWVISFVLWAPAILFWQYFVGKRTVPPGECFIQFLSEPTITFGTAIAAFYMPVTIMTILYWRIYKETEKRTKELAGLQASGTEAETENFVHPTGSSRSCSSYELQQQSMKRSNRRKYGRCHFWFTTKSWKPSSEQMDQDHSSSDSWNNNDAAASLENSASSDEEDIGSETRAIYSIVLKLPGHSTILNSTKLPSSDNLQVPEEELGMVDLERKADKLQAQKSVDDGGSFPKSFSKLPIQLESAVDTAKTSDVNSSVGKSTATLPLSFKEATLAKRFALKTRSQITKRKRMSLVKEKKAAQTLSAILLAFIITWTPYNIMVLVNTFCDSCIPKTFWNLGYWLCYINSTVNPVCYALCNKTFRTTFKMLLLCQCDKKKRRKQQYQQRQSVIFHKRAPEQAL

| SMILES | EC50 [1] [µM] | EC50 [2] [µM] | EC50 [3] [µM] |
| --- | --- | --- | --- |
| CCOC(=O)N1CC[C@H](N2CCC(n3c(=O)[nH]c4ccc(F)cc43)CC2)C1 (single isomer, unassigned) [Example 35] | 0.0045 | 5.96 | 0.905 |
| CCOC(=O)N1CC[C@@H](N2CCC(n3c(=O)[nH]c4ccc(F)cc43)CC2)C1 (single isomer, unassigned) [Example 36] | 0.0408 | > 40 | > 40 |
| CCOC(=O)N1CCC(N2CCC(C3C(=O)Nc4ccccc43)CC2)C1 (centres unmarked) [Example 13, Ethyl 3-[4-(2-oxo-2,3-dihydro-1H-indol-3-yl)piperidin-1-yl]pyrrolidine-1-carboxylate] | 0.113 | > 40 | > 40 |
| CCOC(=O)N1CC[C@@H](N2CCC(n3c(=O)[nH]c4ccccc43)CC2)C1 [Example 16, Ethyl (3R)-3-[4-(2-oxo-2,3-dihydro-1H-benzimidazol-1-yl)piperidin-1-yl]pyrrolidine-1-carboxylate] | 0.13 | > 40 | > 40 |
| O=C(C1CCCC1)N1CC[C@H](N2CCC(n3c(=O)[nH]c4ccccc43)CC2)C1 [Example 19, 1-{1-[(3S)-1-(cyclopentylcarbonyl)pyrrolidin-3-yl]piperidin-4-yl}-1,3-dihydro-2H-benzimidazol-2-one] | 0.0096 | 2.08 | 0.833 |
| O=C1CCCN1CCCC(=O)N1CC[C@H](N2CCC(n3c(=O)[nH]c4ccccc43)CC2)C1 [Example 22, 1-(1-{(3S)-1-[4-(2-oxopyrrolidin-1-yl)butanoyl]pyrrolidin-3-yl}piperidin-4-yl)-1,3-dihydro-2H-benzimidazol-2-one] | 0.0379 |  |  |
| Cn1c(=O)n(C2CCN([C@H]3CCN(C(=O)CCN4CCCC4=O)C3)CC2)c2ccccc21 [Example 24, 1-methyl-3-(1-{(3S)-1-[3-(2-oxopyrrolidin-1-yl)propanoyl]pyrrolidin-3-yl}piperidin-4-yl)-1,3-dihydro-2H-benzimidazol-2-one] | 0.203 | > 40 | > 40 |
| CCOC(=O)N1CC[C@H](N2CCC(N3C(=O)Cc4ccccc43)CC2)C1 [Example 26, Ethyl (3S)-3-[4-(2-oxo-2,3-dihydro-1H-indol-1-yl)piperidin-1-yl]pyrrolidine-1-carboxylate] | 0.0308 | > 40 | 0.341 |
| O=C1CCCN1CCC(=O)N1CC[C@H](N2CCC(N3C(=O)Cc4ccccc43)CC2)C1 [Example 29, 1-(1-{(3S)-1-[3-(2-oxopyrrolidin-1-yl)propanoyl]pyrrolidin-3-yl}piperidin-4-yl)-1,3-dihydro-2H-indol-2-one] | 0.0035 | 2.5 | 0.708 |
| CCOC(=O)N1CC[C@H](N2CCC(n3c(=O)[nH]c4ccc(C#N)cc43)CC2)C1 [Example 41, Ethyl (3S)-3-[4-(6-cyano-2-oxo-2,3-dihydro-1H-benzimidazol-1-yl)piperidin-1-yl]pyrrolidine-1-carboxylate] | 0.0034 | 2.68 | 0.534 |
| CCOC(=O)N1CC[C@H](N2CCC(n3c(=O)[nH]c4ccc(Cl)cc43)CC2)C1 [Example 42, Ethyl (3S)-3-[4-(6-chloro-2-oxo-2,3-dihydro-1H-benzimidazol-1-yl)piperidin-1-yl]pyrrolidine-1-carboxylate] | 0.003 |  |  |
